# Several values for one entry are separate records, joined by “and”; a condition that tells them apart may be missing. Equal entries are not always repeated. Inconclusive results and toxic doses are left out.
# System: B16 melanoma ip, C57BL/6 mice, median survival T/C
# Test: NCI In Vivo Anticancer Drug Screen. Data for tumor model B16 Melanoma (intraperitoneal) in C57BL/6 mice
# Conditions: endpoint: median survival time, higher = longer survival
# Method: The antitumor activity of compounds was measured in mice bearing transplantable tumors. Survival or tumor size were measured and the results are expressed as the measurement made in the treated group (T) divided by the measurement made in the vehicle treated control group (C). The tumor model used in this assay is B16 Melanoma (intraperitoneal) in C57BL/6 mice
# [1] = dose: 15.0 mg/kg/injection, schedule: Q01DX009 (ip), vehicle: saline
# [2] = dose: 12.5 mg/kg/injection, schedule: Q01DX009 (ip), vehicle: saline
# [3] = dose: 25.0 mg/kg/injection, schedule: Q01DX009 (ip), vehicle: saline
# [4] = dose: 100.0 mg/kg/injection, schedule: Q01DX009 (ip), vehicle: saline
# [5] = dose: 1.5 mg/kg/injection, schedule: Q01DX009 (ip), vehicle: saline
# [6] = dose: 3.0 mg/kg/injection, schedule: Q01DX009 (ip), vehicle: saline
# [7] = dose: 50.0 mg/kg/injection, schedule: Q01DX009 (ip), vehicle: saline
# [8] = dose: 200.0 mg/kg/injection, schedule: Q01DX009 (ip), vehicle: saline
# [9] = dose: 6.25 mg/kg/injection, schedule: Q01DX009 (ip), vehicle: saline
smiles,measurement,setting,value
CC(C)=CCC/C(C)=C/CO,T/C,"dose: 15.6 mg/kg/injection, schedule: Q01DX009 (ip), vehicle: saline",93 % of control
same,T/C,"dose: 31.3 mg/kg/injection, schedule: Q01DX009 (ip), vehicle: saline",96 % of control
same,T/C,"dose: 62.5 mg/kg/injection, schedule: Q01DX009 (ip), vehicle: saline",86 % of control
same,T/C,"dose: 125.0 mg/kg/injection, schedule: Q01DX009 (ip), vehicle: saline",86 % of control
O=NN(CCCl)C(=O)NCCCl,T/C,"dose: 7.5 mg/kg/injection, schedule: Q01DX009 (ip), vehicle: saline",164 % of control and 213 % of control
same,T/C,[1],121 % of control
COC1=C(N)C(=O)c2nc(-c3nc(C(=O)O)c(C)c(-c4ccc(OC)c(OC)c4O)c3N)ccc2C1=O,T/C,"dose: 0.03 mg/kg/injection, schedule: Q01DX009 (ip), vehicle: saline",103 % of control
same,T/C,"dose: 0.05 mg/kg/injection, schedule: Q01DX009 (ip), vehicle: saline",93 % of control and 100 % of control and 118 % of control
C[C@]12C=CC(=O)C=C1CC[C@@H]1[C@@H]2C(=O)C[C@@]2(C)[C@H]1CC[C@]2(O)C(=O)CO,T/C,[2],100 % of control
same,T/C,[3],100 % of control
same,T/C,[4],88 % of control
CN1CCN(CCCN2c3ccccc3Sc3ccc(C(F)(F)F)cc32)CC1,T/C,[3],107 % of control
N[C@@H](Cc1ccc(N(CCCl)CCCl)cc1)C(=O)O,T/C,[5],170 % of control and 228 % of control
same,T/C,[6],210 % of control
same,T/C,"dose: 6.0 mg/kg/injection, schedule: Q01DX009 (ip), vehicle: saline",226 % of control
same,T/C,"dose: 12.0 mg/kg/injection, schedule: Q01DX009 (ip), vehicle: saline",93 % of control
CN(Cc1cnc2nc(N)nc(N)c2n1)c1ccc(C(=O)N[C@@H](CCC(=O)O)C(=O)O)cc1,T/C,"dose: 0.38 mg/kg/injection, schedule: Q01DX009 (ip), vehicle: saline",100 % of control and 106 % of control
same,T/C,"dose: 0.75 mg/kg/injection, schedule: Q01DX009 (ip), vehicle: saline",100 % of control and 106 % of control
same,T/C,[5],93 % of control and 100 % of control
same,T/C,[6],100 % of control
[N-]=[N+]=CC(=O)NCC(=O)NN,T/C,[7],107 % of control
same,T/C,[4],110 % of control
same,T/C,[8],121 % of control
same,T/C,"dose: 400.0 mg/kg/injection, schedule: Q01DX009 (ip), vehicle: saline",117 % of control
CN(C)CCCN1c2ccccc2Sc2ccc(Cl)cc21,T/C,"dose: 3.13 mg/kg/injection, schedule: Q01DX009 (ip), vehicle: saline",100 % of control and 97 % of control
same,T/C,[9],100 % of control and 102 % of control
same,T/C,[2],111 % of control and 105 % of control
same,T/C,[3],100 % of control and 108 % of control
Nc1nc2n[nH]nc2c(=O)[nH]1,T/C,[3],100 % of control
same,T/C,[7],103 % of control
same,T/C,[4],86 % of control
same,T/C,[8],90 % of control
CC(CN1CC(=O)NC(=O)C1)N1CC(=O)NC(=O)C1 (stereo not drawn),T/C,[1],109 % of control
same,T/C,"dose: 60.0 mg/kg/injection, schedule: Q01DX009 (ip), vehicle: saline",90 % of control
CS(=O)(=O)OCCCCOS(C)(=O)=O,T/C,"dose: 3.12 mg/kg/injection, schedule: Q01DX009 (ip), vehicle: saline",103 % of control
same,T/C,[9],96 % of control
same,T/C,[2],106 % of control
same,T/C,[3],103 % of control
C[n+]1c2ccccc2c(Nc2ccc(NS(=O)(=O)CCCCN=C(N)N)cc2)c2ccc(N)cc21,T/C,"dose: 0.38 mg/kg/injection, schedule: Q01DX009 (ip), vehicle: water",115 % of control
same,T/C,"dose: 0.75 mg/kg/injection, schedule: Q01DX009 (ip), vehicle: water",158 % of control
same,T/C,"dose: 1.5 mg/kg/injection, schedule: Q01DX009 (ip), vehicle: water",151 % of control
same,T/C,"dose: 3.0 mg/kg/injection, schedule: Q01DX009 (ip), vehicle: water",113 % of control
same,T/C,"dose: 6.0 mg/kg/injection, schedule: Q01DX009 (ip), vehicle: water",101 % of control
CC1CCC(NC(=O)N(CCCl)N=O)CC1 (stereo not drawn),T/C,"dose: 1.9 mg/kg/injection, schedule: Q01DX001 (ip), vehicle: saline",100 % of control
same,T/C,"dose: 3.75 mg/kg/injection, schedule: Q01DX001 (ip), vehicle: saline",112 % of control
same,T/C,"dose: 7.5 mg/kg/injection, schedule: Q01DX001 (ip), vehicle: saline",103 % of control
same,T/C,"dose: 15.0 mg/kg/injection, schedule: Q01DX001 (ip), vehicle: saline",115 % of control
NC(Cc1ccc(N(CCCl)CCCl)cc1)C(=O)O (stereo not drawn),T/C,"dose: 4.0 mg/kg/injection, schedule: Q01DX009 (ip), vehicle: saline",200 % of control and 268 % of control and 350 % of control
